Experimental data taken from PMC2735267 (Neuropharmacology, 2009).
Where two headings read alike, the source gives them in different places. Marks after values point to notes of the source that are not given here.

How the values were obtained:
β4*-nAChR = β4*-nAChR (Mus musculus, UniProt Q8R493+Q8R4G9); assay: biochemical; type: binding, C57BL/6J mice; details: read-out: [125I]epibatidine (β2 -/-) Ki; inferior colliculi, β2-/- mice; 200 pM ligand
C57BL/6J mice = assay: 3-IC-induced hypothermia; type: in vivo, mouse
DBA/2J mice = assay: Chronic intravenous 3-IC infusion and tolerance test; type: in vivo, mouse
α7* nAChR binding sites = type: in vivo, DBA/2J mice; details: cerebral cortex membranes; 0.2 mg/kg/h iv 7 days
[1] = system: cytisine-sensitive [125I]epibatidine binding sites; type: in vivo, DBA/2J mice; details: for Cytisine-sensitive [125I]epibatidine binding: 3-IC 0.2 mg/kg/h iv 7 days; for Cytisine-sensitive [125I]epibatidine binding % change: 3-IC 0.2 mg/kg/h iv 7 days vs saline
[2] = system: cytisine-resistant [125I]epibatidine binding sites; details: for Cytisine-resistant [125I]epibatidine binding: 3-IC 0.2 mg/kg/h iv 7 days; for Cytisine-resistant [125I]epibatidine binding % change: 3-IC 0.2 mg/kg/h iv 7 days vs saline
[3H]dopamine release = read-out: EC50 [3H]dopamine release; rat striatal synaptosomes; ref Abin-Carriquiry et al., 2006; cited from earlier work
[3] = dorsolateral geniculate nucleus
[4] = superior colliculus (optic nerve)
[5] = superior colliculus (sup. gray)

Sequence of β4*-nAChR (Q8R493 21-495): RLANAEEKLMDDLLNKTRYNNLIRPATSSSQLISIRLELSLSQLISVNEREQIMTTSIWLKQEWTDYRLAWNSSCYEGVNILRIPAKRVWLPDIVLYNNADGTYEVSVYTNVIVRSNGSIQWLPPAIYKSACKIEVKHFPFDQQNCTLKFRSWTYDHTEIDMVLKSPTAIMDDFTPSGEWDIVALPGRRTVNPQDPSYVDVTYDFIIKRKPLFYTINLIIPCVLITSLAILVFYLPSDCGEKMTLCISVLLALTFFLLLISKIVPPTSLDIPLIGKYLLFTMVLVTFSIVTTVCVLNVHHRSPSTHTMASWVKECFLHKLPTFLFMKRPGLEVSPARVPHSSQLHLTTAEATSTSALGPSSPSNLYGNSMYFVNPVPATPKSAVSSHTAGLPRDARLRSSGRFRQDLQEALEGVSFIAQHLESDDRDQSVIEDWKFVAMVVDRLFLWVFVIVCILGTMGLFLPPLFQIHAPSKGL
Sequence of β4*-nAChR (Q8R4G9 26-499): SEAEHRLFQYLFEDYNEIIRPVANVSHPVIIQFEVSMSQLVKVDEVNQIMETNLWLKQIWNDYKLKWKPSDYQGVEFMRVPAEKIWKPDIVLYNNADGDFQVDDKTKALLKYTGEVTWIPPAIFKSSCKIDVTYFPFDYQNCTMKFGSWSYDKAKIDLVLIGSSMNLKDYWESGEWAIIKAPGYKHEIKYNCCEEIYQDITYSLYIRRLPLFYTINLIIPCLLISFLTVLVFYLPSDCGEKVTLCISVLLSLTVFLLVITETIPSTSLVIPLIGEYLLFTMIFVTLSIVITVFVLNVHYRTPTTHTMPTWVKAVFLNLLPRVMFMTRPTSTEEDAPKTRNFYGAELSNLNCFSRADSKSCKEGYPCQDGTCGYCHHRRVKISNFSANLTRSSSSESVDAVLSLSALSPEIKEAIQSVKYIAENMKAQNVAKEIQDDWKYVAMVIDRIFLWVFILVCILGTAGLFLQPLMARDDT

## O=c1c(I)ccc2n1C[C@@H]1CNC[C@H]2C1 [3-IC, 3-iodocytisine]
β4*-nAChR
  Ki: 0.25 ± 0.04 nM
C57BL/6J mice; 0.2 mg/kg ip acute
  decrease of basal temperature: 9.2 ± 1.13 °C
C57BL/6J mice; 1 mg/kg ip
  maximal temperature decrease: 13.3 ± 0.9 °C
C57BL/6J mice; hexamethonium experiment, 3-IC 0.2 mg/kg
  maximal 3-IC-induced hypothermia after saline pretreatment: 9.25 ± 0.76 °C
C57BL/6J mice; ip, maximal drop in temperature
  ED50 for hypothermia: 0.16 ± 0.03 mg/kg
C57BL/6J mice; mecamylamine experiment, 3-IC 0.2 mg/kg ip
  3-IC-induced hypothermia after saline pretreatment: 9.25 ± 0.76 °C
DBA/2J mice; 0.2 mg/kg/h iv 7 days
  tolerance after chronic infusion: did not elicit tolerance
DBA/2J mice; after 24 hours of continuous intravenous infusion of 0.5 mg/kg/h
  decrease of body temperature during infusion: 13 ± 0.3 °C
DBA/2J mice; continuous intravenous infusion
  infusion doses that elicited tremors: higher than 0.2 mg/kg/h
α7* nAChR binding sites
  increase in [125I]α-bungarotoxin binding sites compared to saline: 58%
[1]; anterior olfactory nucleus
  Cytisine-sensitive [125I]epibatidine binding: 16.1 ± 1.4 fmol/mg
  Cytisine-sensitive [125I]epibatidine binding % change: 53.5%
[1]; anteromedial thalamic nucleus
  Cytisine-sensitive [125I]epibatidine binding: 50.3 ± 4.0 fmol/mg
  Cytisine-sensitive [125I]epibatidine binding % change: -0.8%
[1]; caudate putamen
  Cytisine-sensitive [125I]epibatidine binding: 20.3 ± 1.9 fmol/mg
  Cytisine-sensitive [125I]epibatidine binding % change: 68.3 * %
[1]; cingulate cortex
  Cytisine-sensitive [125I]epibatidine binding: 23.6 ± 1.5 fmol/mg
  Cytisine-sensitive [125I]epibatidine binding % change: 42.0%
[1]; dentate gyrus (granular layer)
  Cytisine-sensitive [125I]epibatidine binding: 12.3 ± 0.6 fmol/mg
  Cytisine-sensitive [125I]epibatidine binding % change: 46.8 * %
[1]; [3]
  Cytisine-sensitive [125I]epibatidine binding: 70.7 ± 3.9 fmol/mg
  Cytisine-sensitive [125I]epibatidine binding % change: 9.7%
[1]; dorsomedial thalamic nucleus
  Cytisine-sensitive [125I]epibatidine binding: 52.9 ± 5.2 fmol/mg
  Cytisine-sensitive [125I]epibatidine binding % change: -4.5%
[1]; fasciculus retroflexus
  Cytisine-sensitive [125I]epibatidine binding: 40.2 ± 4.0 fmol/mg
  Cytisine-sensitive [125I]epibatidine binding % change: 1.0%
[1]; hippocampus (CA1-3)
  Cytisine-sensitive [125I]epibatidine binding: 9.0 ± 0.2 fmol/mg
  Cytisine-sensitive [125I]epibatidine binding % change: 56.3 *** %
[1]; inferior colliculus (central)
  Cytisine-sensitive [125I]epibatidine binding: 12.2 ± 2.5 fmol/mg
  Cytisine-sensitive [125I]epibatidine binding % change: 97.2 * %
[1]; inferior colliculus (dorsal)
  Cytisine-sensitive [125I]epibatidine binding: 22.8 ± 2.1 fmol/mg
  Cytisine-sensitive [125I]epibatidine binding % change: 68.7 * %
[1]; inferior colliculus (external)
  Cytisine-sensitive [125I]epibatidine binding: 16.8 ± 2.1 fmol/mg
  Cytisine-sensitive [125I]epibatidine binding % change: 88.9 * %
[1]; interpeduncular nucleus
  Cytisine-sensitive [125I]epibatidine binding: 194.7 ± 42.8 fmol/mg
  Cytisine-sensitive [125I]epibatidine binding % change: -0.6%
[1]; medial geniculate nucleus
  Cytisine-sensitive [125I]epibatidine binding: 49.4 ± 8.2 fmol/mg
  Cytisine-sensitive [125I]epibatidine binding % change: 27.2%
[1]; medial habenula
  Cytisine-sensitive [125I]epibatidine binding: 171.3 ± 36.4 fmol/mg
  Cytisine-sensitive [125I]epibatidine binding % change: 52.6%
[1]; nucleus accumbens
  Cytisine-sensitive [125I]epibatidine binding: 15.9 ± 2.1 fmol/mg
  Cytisine-sensitive [125I]epibatidine binding % change: 91.8 * %
[1]; olfactory tubercle
  Cytisine-sensitive [125I]epibatidine binding: 14.5 ± 1.6 fmol/mg
  Cytisine-sensitive [125I]epibatidine binding % change: 83.5 * %
[1]; optic tract
  Cytisine-sensitive [125I]epibatidine binding: 15.1 ± 2.9 fmol/mg
  Cytisine-sensitive [125I]epibatidine binding % change: 126.2%
[1]; optic tract, listed as 3-iodocytisine
  Cytisine-sensitive [125I]epibatidine binding % change: 126.2 * %
[1]; parietal cortex (layers 1-3)
  Cytisine-sensitive [125I]epibatidine binding: 9.1 ± 1.0 fmol/mg
  Cytisine-sensitive [125I]epibatidine binding % change: 71.7 * %
[1]; parietal cortex (layers 4-6)
  Cytisine-sensitive [125I]epibatidine binding: 19.0 ± 1.6 fmol/mg
  Cytisine-sensitive [125I]epibatidine binding % change: 79.7 * %
[1]; retrosplenial Cortex
  Cytisine-sensitive [125I]epibatidine binding: 26.6 ± 2.7 fmol/mg
  Cytisine-sensitive [125I]epibatidine binding % change: 35.6%
[1]; subiculum
  Cytisine-sensitive [125I]epibatidine binding: 41.7 ± 3.8 fmol/mg
  Cytisine-sensitive [125I]epibatidine binding % change: 27.8%
[1]; substantia nigra
  Cytisine-sensitive [125I]epibatidine binding: 43.6 ± 7.3 fmol/mg
  Cytisine-sensitive [125I]epibatidine binding % change: 38.0%
[1]; [4]
  Cytisine-sensitive [125I]epibatidine binding: 47.3 ± 2.2 fmol/mg
  Cytisine-sensitive [125I]epibatidine binding % change: 60.6 *** %
[1]; [5]
  Cytisine-sensitive [125I]epibatidine binding: 51.2 ± 4.4 fmol/mg
  Cytisine-sensitive [125I]epibatidine binding % change: 50.2 ** %
[1]; ventral tegmental area
  Cytisine-sensitive [125I]epibatidine binding: 25.1 ± 1.5 fmol/mg
  Cytisine-sensitive [125I]epibatidine binding % change: 45.2%
[1]; ventral tegmental area, listed as 3-iodocytisine
  Cytisine-sensitive [125I]epibatidine binding % change: 45.2 * %
[1]; ventromedial thalamic nucleus
  Cytisine-sensitive [125I]epibatidine binding: 50.7 ± 1.5 fmol/mg
  Cytisine-sensitive [125I]epibatidine binding % change: -0.8%
[1]; zona incerta
  Cytisine-sensitive [125I]epibatidine binding: 13.7 ± 1.2 fmol/mg
  Cytisine-sensitive [125I]epibatidine binding % change: 55.3 * %
[2]; anterior olfactory nucleus
  Cytisine-resistant [125I]epibatidine binding: 13.27 ± 2.48 fmol/mg
[2]; anteromedial thalamic nucleus
  Cytisine-resistant [125I]epibatidine binding: 3.97 ± 0.25 fmol/mg
  Cytisine-resistant [125I]epibatidine binding % change: 22.0%
[2]; autoradiography, 0.2 mg/kg/h iv 7 days
  cytisine-resistant [125I]epibatidine sites after chronic treatment: not affected
[2]; caudate putamen
  Cytisine-resistant [125I]epibatidine binding: 2.39 ± 0.29 fmol/mg
  Cytisine-resistant [125I]epibatidine binding % change: 18.2%
[2]; cingulate cortex
  Cytisine-resistant [125I]epibatidine binding: 1.25 ± 0.13 fmol/mg
  Cytisine-resistant [125I]epibatidine binding % change: 26.9%
[2]; dentate gyrus (granular layer)
  Cytisine-resistant [125I]epibatidine binding: 1.15 ± 0.06 fmol/mg
  Cytisine-resistant [125I]epibatidine binding % change: 17.3%
[2]; [3]
  Cytisine-resistant [125I]epibatidine binding: 9.89 ± 0.66 fmol/mg
  Cytisine-resistant [125I]epibatidine binding % change: -2.8%
[2]; dorsomedial thalamic nucleus
  Cytisine-resistant [125I]epibatidine binding: 3.78 ± 0.50 fmol/mg
  Cytisine-resistant [125I]epibatidine binding % change: 5.3%
[2]; fasciculus retroflexus
  Cytisine-resistant [125I]epibatidine binding: 63.47 ± 4.86 fmol/mg
  Cytisine-resistant [125I]epibatidine binding % change: 3.1%
[2]; hippocampus (CA1-3)
  Cytisine-resistant [125I]epibatidine binding: 0.98 ± 0.06 fmol/mg
  Cytisine-resistant [125I]epibatidine binding % change: 20.2%
[2]; inferior colliculus (central)
  Cytisine-resistant [125I]epibatidine binding: 4.00 ± 1.42 fmol/mg
  Cytisine-resistant [125I]epibatidine binding % change: 68.2%
[2]; inferior colliculus (dorsal)
  Cytisine-resistant [125I]epibatidine binding: 10.17 ± 2.62 fmol/mg
  Cytisine-resistant [125I]epibatidine binding % change: 67.7%
[2]; inferior colliculus (external)
  Cytisine-resistant [125I]epibatidine binding: 2.55 ± 0.19 fmol/mg
  Cytisine-resistant [125I]epibatidine binding % change: 24.2%
[2]; interpeduncular nucleus
  Cytisine-resistant [125I]epibatidine binding: 211.95 ± 31.83 fmol/mg
[2]; medial geniculate nucleus
  Cytisine-resistant [125I]epibatidine binding: 4.43 ± 0.80 fmol/mg
  Cytisine-resistant [125I]epibatidine binding % change: 38.1%
[2]; medial habenula
  Cytisine-resistant [125I]epibatidine binding: 282.84 ± 31.53 fmol/mg
  Cytisine-resistant [125I]epibatidine binding % change: -13.5%
[2]; nucleus accumbens
  Cytisine-resistant [125I]epibatidine binding: 1.95 ± 0.21 fmol/mg
  Cytisine-resistant [125I]epibatidine binding % change: 12.9%
[2]; olfactory tubercle
  Cytisine-resistant [125I]epibatidine binding: 2.9 ± 0.5 fmol/mg
  Cytisine-resistant [125I]epibatidine binding % change: -17.1%
[2]; optic tract
  Cytisine-resistant [125I]epibatidine binding: 1.75 ± 0.22 fmol/mg
  Cytisine-resistant [125I]epibatidine binding % change: 26.1%
[2]; parietal cortex (layers 1-3)
  Cytisine-resistant [125I]epibatidine binding: 0.62 ± 0.06 fmol/mg
  Cytisine-resistant [125I]epibatidine binding % change: 24.6%
[2]; parietal cortex (layers 4-6)
  Cytisine-resistant [125I]epibatidine binding: 1.29 ± 0.07 fmol/mg
  Cytisine-resistant [125I]epibatidine binding % change: 45.9%
[2]; retrosplenial Cortex
  Cytisine-resistant [125I]epibatidine binding: 1.63 ± 0.11 fmol/mg
  Cytisine-resistant [125I]epibatidine binding % change: 35.8%
[2]; subiculum
  Cytisine-resistant [125I]epibatidine binding: 1.89 ± 0.10 fmol/mg
[2]; substantia nigra
  Cytisine-resistant [125I]epibatidine binding: 1.6 ± 0.2 fmol/mg
  Cytisine-resistant [125I]epibatidine binding % change: 6.7%
[2]; [4]
  Cytisine-resistant [125I]epibatidine binding: 3.21 ± 0.14 fmol/mg
  Cytisine-resistant [125I]epibatidine binding % change: 0.5%
[2]; [5]
  Cytisine-resistant [125I]epibatidine binding: 11.25 ± 0.12 fmol/mg
  Cytisine-resistant [125I]epibatidine binding % change: 10.8%
[2]; ventral tegmental area
  Cytisine-resistant [125I]epibatidine binding: 3.4 ± 0.69 fmol/mg
  Cytisine-resistant [125I]epibatidine binding % change: 20.5%
[2]; ventromedial thalamic nucleus
  Cytisine-resistant [125I]epibatidine binding: 3.29 ± 0.46 fmol/mg
  Cytisine-resistant [125I]epibatidine binding % change: 13.4%
[2]; zona incerta
  Cytisine-resistant [125I]epibatidine binding: 2.34 ± 0.22 fmol/mg
[3H]dopamine release
  EC50: 11 nM
